{"source": "patent US10125121B2", "about": "“FYN kinase inhibitors” (ROTTAPHARM BIOTECH S.R.L., priority 2015, dated 2018)", "key": {"[1]": {"assay": "Pharmacokinetics in rats", "type": "in vivo, rat", "conditions": "rat, in vivo, po, 1 mg/kg orally"}, "[2]": {"molecular_target": "FLT-4 (Homo sapiens, UniProt P35916)", "sequence (P35916 25-1363)": "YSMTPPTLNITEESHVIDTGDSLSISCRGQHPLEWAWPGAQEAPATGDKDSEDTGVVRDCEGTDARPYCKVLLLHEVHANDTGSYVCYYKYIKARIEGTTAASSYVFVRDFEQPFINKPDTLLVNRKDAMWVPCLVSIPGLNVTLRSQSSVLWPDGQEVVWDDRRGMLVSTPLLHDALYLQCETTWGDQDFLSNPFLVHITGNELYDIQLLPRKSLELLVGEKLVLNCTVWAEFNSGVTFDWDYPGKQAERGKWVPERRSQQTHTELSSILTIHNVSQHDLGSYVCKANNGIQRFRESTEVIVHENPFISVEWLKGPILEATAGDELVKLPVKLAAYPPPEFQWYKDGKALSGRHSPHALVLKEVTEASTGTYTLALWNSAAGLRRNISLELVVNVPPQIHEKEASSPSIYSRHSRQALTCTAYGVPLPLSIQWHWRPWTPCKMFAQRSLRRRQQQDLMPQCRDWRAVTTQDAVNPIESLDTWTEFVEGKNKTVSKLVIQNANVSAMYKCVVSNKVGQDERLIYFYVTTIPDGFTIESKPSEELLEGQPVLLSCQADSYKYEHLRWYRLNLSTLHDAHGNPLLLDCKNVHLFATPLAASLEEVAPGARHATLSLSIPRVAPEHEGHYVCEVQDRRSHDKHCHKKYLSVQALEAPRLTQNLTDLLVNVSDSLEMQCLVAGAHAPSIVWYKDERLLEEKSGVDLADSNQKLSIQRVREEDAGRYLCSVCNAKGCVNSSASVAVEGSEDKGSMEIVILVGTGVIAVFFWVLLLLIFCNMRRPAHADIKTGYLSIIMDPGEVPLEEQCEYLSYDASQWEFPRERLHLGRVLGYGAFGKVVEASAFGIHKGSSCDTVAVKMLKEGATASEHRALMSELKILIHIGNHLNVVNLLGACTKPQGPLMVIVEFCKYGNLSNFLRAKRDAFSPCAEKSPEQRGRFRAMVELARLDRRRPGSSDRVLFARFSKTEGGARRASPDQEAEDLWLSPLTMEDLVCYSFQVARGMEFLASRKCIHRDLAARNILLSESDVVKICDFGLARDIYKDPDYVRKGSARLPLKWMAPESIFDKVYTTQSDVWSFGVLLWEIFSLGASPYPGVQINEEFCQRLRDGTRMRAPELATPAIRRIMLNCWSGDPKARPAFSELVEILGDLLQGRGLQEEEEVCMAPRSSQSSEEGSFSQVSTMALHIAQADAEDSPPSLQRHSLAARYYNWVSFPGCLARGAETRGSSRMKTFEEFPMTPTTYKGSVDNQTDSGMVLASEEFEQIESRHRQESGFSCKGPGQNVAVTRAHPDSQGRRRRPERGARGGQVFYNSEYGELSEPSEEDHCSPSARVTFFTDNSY", "assay": "Kinase selectivity panel by Cerep", "conditions": "read-out: inhibition of FLT-4"}, "[3]": {"molecular_target": "LYN (Homo sapiens, UniProt P07948)", "sequence (P07948 whole entry)": "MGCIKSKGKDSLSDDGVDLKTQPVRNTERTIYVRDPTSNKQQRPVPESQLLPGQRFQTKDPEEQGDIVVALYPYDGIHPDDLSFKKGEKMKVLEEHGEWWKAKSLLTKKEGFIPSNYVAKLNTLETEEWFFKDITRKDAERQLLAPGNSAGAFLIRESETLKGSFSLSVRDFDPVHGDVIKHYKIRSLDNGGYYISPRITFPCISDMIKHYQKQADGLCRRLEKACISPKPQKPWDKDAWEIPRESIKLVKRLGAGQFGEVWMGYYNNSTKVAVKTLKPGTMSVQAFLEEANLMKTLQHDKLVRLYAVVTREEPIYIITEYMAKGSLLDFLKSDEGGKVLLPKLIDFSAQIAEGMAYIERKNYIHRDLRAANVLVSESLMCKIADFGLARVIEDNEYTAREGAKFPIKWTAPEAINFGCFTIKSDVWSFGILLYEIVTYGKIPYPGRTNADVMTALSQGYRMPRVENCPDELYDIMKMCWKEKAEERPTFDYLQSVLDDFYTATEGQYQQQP", "assay": "Kinase selectivity panel by Cerep"}, "[4]": {"test_system": "mechanical hyperalgesia in meniscal tear osteoarthritis", "assay": "Surgically induced meniscal tear osteoarthritis in the rat (MMT)", "type": "in vivo", "excerpt": "Male Sprague Dawley rats (Charles River) approximately 350 g body weight were used. Rats were anesthetized using 2.5% isoflurane in oxygen with a flow rate of 1 I per minute. The right hind leg was shaved and surgically prepared. The medial collateral ligament was exposed and transected. The meniscus was grasped with a hemostat and reflected proximally toward the femur. The meniscus was cut through its full thickness at the narrowest point. The connective tissue layer and the skin were closed with coated Vicryl 8-0 and 4-0 silk sutures, respectively. Sham operated animals underwent an identical procedure with the exception that the medial collateral ligament was exposed but not transected. After a recovery period of 2 weeks, mechanical hyperalgesia was evaluated for the following 4 weeks, once a week, before and 90 minutes after drugs administration. Pharmacological oral treatment was performed for 28 days, starting from 14 days after surgery. After 6 weeks from surgery, rats (ten animals per group) were sacrificed and the ipsilateral knee was removed for histopathological analysis.\nThe maximum possible effect (MPE %) was calculated by the following formula: 100*(Compound−Vehicle)/(Sham−Vehicle)"}, "[5]": {"molecular_target": "LCK (Homo sapiens, UniProt P06239)", "sequence (P06239 whole entry)": "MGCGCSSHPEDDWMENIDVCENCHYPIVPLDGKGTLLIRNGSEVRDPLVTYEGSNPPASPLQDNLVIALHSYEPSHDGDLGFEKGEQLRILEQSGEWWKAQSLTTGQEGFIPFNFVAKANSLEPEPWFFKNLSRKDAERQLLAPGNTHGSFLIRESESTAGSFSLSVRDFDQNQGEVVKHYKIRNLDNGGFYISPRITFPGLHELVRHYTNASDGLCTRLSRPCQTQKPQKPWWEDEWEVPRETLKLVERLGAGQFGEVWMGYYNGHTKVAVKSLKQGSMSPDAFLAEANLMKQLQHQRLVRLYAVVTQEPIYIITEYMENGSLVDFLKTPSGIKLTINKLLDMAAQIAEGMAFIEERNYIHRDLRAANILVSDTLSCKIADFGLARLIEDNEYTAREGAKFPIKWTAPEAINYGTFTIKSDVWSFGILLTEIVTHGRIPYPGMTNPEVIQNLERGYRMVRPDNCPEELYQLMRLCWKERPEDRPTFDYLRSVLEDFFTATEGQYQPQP", "assay": "Kinase selectivity panel by Cerep"}, "[6]": {"molecular_target": "HCK (Homo sapiens, UniProt P08631)", "sequence (P08631 whole entry)": "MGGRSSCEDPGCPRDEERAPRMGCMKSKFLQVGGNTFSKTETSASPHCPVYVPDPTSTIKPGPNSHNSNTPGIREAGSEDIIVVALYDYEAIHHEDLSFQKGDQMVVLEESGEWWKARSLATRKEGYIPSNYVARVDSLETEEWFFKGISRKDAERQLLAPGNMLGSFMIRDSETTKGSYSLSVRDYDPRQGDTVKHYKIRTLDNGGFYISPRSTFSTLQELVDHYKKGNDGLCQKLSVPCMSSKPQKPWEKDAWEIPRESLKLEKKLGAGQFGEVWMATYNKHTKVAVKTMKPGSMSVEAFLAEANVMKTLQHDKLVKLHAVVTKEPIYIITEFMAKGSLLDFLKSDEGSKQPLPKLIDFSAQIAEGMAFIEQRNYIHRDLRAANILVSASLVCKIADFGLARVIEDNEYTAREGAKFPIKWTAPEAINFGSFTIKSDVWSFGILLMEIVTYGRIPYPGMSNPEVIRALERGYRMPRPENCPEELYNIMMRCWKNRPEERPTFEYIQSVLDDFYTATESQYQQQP", "assay": "Kinase selectivity panel by Cerep"}, "[7]": {"molecular_target": "YES (Homo sapiens, UniProt P07947)", "sequence (P07947 whole entry)": "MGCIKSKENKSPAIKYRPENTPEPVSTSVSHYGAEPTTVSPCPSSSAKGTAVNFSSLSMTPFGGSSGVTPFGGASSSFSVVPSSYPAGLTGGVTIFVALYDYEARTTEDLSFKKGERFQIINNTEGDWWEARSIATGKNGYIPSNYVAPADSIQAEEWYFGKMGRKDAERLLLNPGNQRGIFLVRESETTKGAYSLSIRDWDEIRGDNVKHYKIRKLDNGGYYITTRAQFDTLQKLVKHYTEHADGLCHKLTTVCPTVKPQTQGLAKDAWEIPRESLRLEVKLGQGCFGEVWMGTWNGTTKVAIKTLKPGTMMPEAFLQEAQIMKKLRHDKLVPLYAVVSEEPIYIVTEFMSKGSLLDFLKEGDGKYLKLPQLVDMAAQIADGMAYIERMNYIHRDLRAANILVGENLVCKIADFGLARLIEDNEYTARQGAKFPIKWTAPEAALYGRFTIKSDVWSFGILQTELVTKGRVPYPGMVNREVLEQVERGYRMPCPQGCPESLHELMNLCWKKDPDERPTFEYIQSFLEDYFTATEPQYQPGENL", "assay": "Kinase selectivity panel by Cerep"}, "[8]": {"molecular_target": "T1, FLT-3 (Homo sapiens, UniProt P36888)", "T1 sequence (P36888 27-993)": "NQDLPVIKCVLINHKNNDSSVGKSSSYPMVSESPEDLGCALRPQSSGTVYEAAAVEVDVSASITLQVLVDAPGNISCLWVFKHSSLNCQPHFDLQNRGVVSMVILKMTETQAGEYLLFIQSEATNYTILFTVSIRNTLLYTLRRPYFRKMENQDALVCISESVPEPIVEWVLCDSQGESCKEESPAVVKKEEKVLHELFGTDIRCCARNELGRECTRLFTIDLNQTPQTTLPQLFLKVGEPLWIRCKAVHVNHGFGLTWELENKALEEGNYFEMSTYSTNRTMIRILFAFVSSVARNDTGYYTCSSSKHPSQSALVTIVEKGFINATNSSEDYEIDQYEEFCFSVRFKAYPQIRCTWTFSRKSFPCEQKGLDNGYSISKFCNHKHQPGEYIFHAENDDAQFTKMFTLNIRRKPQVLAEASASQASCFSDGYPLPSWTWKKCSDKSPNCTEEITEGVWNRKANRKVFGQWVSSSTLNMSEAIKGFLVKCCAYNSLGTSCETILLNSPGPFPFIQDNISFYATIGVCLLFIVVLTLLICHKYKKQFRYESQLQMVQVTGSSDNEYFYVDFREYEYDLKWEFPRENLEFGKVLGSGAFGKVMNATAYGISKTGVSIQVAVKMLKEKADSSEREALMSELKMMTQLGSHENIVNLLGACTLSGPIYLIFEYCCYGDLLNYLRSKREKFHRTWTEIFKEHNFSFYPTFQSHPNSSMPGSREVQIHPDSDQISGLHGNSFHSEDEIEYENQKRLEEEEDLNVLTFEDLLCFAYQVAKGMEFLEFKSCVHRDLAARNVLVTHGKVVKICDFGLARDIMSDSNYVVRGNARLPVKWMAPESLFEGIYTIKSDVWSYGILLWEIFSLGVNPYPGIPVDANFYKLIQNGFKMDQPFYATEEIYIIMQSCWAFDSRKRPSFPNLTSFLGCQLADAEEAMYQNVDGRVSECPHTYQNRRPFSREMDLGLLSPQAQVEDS", "assay": "Kinase selectivity panel by Cerep", "conditions": "read-out: inhibition of FLT-3"}, "[9]": {"molecular_target": "FYN (Homo sapiens, UniProt P06241)", "sequence (P06241 whole entry)": "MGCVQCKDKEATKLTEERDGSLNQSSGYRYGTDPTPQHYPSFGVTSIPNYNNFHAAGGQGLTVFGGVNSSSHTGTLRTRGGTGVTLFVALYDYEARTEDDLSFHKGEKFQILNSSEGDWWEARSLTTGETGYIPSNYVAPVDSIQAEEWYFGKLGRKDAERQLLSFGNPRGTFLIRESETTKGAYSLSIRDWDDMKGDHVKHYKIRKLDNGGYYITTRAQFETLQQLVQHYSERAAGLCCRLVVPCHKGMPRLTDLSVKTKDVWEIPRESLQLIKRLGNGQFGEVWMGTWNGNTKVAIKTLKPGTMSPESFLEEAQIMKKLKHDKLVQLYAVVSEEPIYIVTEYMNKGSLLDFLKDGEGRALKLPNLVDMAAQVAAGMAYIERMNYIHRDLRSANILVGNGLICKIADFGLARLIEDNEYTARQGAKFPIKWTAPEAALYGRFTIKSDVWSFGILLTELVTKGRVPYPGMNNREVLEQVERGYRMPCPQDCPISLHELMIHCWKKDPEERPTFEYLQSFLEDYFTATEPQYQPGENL", "assay": "Kinase selectivity panel by Cerep"}, "[10]": {"molecular_target": "CDK2 (Homo sapiens, UniProt P24941)", "assay": "Kinase selectivity panel by Cerep", "conditions": "read-out: inhibition of CDK2"}, "[11]": {"molecular_target": "RET (Homo sapiens, UniProt P07949)", "sequence (P07949 29-1114)": "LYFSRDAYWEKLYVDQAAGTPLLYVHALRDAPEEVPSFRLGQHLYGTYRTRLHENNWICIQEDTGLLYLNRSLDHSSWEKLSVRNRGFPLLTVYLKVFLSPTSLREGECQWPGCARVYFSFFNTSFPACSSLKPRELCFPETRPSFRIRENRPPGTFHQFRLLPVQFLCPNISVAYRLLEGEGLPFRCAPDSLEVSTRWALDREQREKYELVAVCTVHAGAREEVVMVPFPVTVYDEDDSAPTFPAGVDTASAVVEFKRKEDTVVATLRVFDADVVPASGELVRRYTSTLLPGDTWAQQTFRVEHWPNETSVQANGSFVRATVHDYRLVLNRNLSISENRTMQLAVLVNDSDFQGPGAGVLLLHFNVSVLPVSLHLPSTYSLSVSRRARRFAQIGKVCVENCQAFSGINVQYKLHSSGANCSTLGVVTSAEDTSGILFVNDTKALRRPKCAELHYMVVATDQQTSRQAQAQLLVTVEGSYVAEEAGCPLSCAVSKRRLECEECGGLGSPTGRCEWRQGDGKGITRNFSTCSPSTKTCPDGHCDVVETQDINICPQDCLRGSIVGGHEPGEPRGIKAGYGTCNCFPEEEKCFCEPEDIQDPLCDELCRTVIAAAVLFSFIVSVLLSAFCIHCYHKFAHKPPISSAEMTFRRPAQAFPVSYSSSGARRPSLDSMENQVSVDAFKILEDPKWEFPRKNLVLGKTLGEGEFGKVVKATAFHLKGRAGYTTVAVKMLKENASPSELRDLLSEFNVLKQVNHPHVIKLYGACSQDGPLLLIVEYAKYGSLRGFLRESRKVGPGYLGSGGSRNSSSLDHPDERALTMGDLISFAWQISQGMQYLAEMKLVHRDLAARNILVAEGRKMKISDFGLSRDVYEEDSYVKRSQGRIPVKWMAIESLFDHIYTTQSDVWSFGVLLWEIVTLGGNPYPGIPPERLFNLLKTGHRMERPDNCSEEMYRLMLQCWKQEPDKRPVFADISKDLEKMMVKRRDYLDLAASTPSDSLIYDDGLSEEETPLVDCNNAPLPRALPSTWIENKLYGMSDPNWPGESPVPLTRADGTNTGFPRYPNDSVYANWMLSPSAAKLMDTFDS", "assay": "Kinase selectivity panel by Cerep", "conditions": "read-out: inhibition of RET"}, "[12]": {"test_system": "CFA induced hyperalgesia", "assay": "CFA-induced inflammatory pain in rats (Randall-Selitto paw withdrawal threshold)", "type": "in vivo", "conditions": "3; rat, 24 h after administration", "procedure": "Male Wistar rats were injected into the right hind footpad with 300 μg of Mycobacterium tuberculosis in 100 μL of liquid paraffin (Complete Freund's Adjuvant; CFA). Seventy-two hours later, compounds 2 and 26 were administered subcutaneously and 24 h after the administration, the response to noxious mechanical stimulation was assessed by measuring paw withdrawal threshold (PWT) with an analgesimeter of the Randall-Selitto type. Animals were gently restrained, and steadily increasing pressure was applied to the dorsal surface of both the ipsi-lateral (CFA-treated) and the contra-lateral paw via a dome-shaped plastic tip.\n100% protection means that the animal treated with the compound and CFA can tolerate the same stimulus (weight) as the control animal which has not received CFA treatment."}, "[13]": {"test_system": "other kinases examined of the SRC family", "assay": "Kinase selectivity panel by Cerep"}, "[14]": {"molecular_target": "SRC (Homo sapiens, UniProt P12931)", "assay": "Kinase selectivity panel by Cerep"}, "[15]": {"test_system": "remaining kinases examined (standard panel of about 100 human kinase assay)", "assay": "Kinase selectivity panel by Cerep"}, "[16]": {"conditions": "10 mg/kg daily orally, day 21 post surgery"}, "[17]": {"conditions": "10 mg/kg daily orally, day 28 post surgery"}, "[18]": {"conditions": "10 mg/kg daily orally, day 35 post surgery"}, "[19]": {"conditions": "10 mg/kg daily orally, day 42 post surgery"}, "[20]": {"conditions": "30 mg/kg daily orally, day 21 post surgery"}, "[21]": {"conditions": "30 mg/kg daily orally, day 28 post surgery"}, "[22]": {"conditions": "30 mg/kg daily orally, day 35 post surgery"}, "[23]": {"conditions": "30 mg/kg daily orally, day 42 post surgery"}}}
{"smiles": "O=C(Nc1ccc(CN2CCN(c3nccc(Nc4cc(C5CC5)[nH]n4)n3)CC2)cc1)c1ccccc1C(F)(F)F", "note": "[Compound 2, N-(4-((4-(4-((5-cyclopropyl-1H-pyrazol-3-yl)amino)pyrimidin-2-yl)piperazin-1-yl)methyl)phenyl)-2-(trifluoromethyl)-benzamide]", "values": [{"measurement": "bioavailability", "setting": "[1]", "result": 51, "unit": "%"}, {"measurement": "AUC(0-t)", "setting": "[1]; read-out: AUC (0-24 h)", "result": 877, "unit": "ng·h/mL"}, {"measurement": "inhibition at 0.1 µM", "setting": "[2]", "result": "> 50", "unit": "%"}, {"measurement": "IC50", "setting": "[3]", "result": 1400, "unit": "nM"}, {"measurement": "Pain threshold", "setting": "[4]; 10 mg/kg daily orally, day 14 post surgery", "result": 308, "unit": "g"}, {"measurement": "Pain threshold", "setting": "[4]; [16]", "result": 333, "unit": "g"}, {"measurement": "Pain threshold: MPE (%)", "setting": "[4]; [16]", "result": 30.5, "unit": "%"}, {"measurement": "Pain threshold", "setting": "[4]; [17]", "result": 323, "unit": "g"}, {"measurement": "Pain threshold: MPE (%)", "setting": "[4]; [17]", "result": 22.6, "unit": "%"}, {"measurement": "Pain threshold", "setting": "[4]; [18]", "result": 313, "unit": "g"}, {"measurement": "Pain threshold: MPE (%)", "setting": "[4]; [18]", "result": 18.2, "unit": "%"}, {"measurement": "Pain threshold", "setting": "[4]; [19]", "result": 298, "unit": "g"}, {"measurement": "Pain threshold: MPE (%)", "setting": "[4]; [19]", "result": 21, "unit": "%"}, {"measurement": "Pain threshold", "setting": "[4]; 30 mg/kg daily orally, day 14 post surgery", "result": 305, "unit": "g"}, {"measurement": "Pain threshold", "setting": "[4]; [20]", "result": 358, "unit": "g"}, {"measurement": "Pain threshold: MPE (%)", "setting": "[4]; [20]", "result": 44, "unit": "%"}, {"measurement": "Pain threshold", "setting": "[4]; [21]", "result": 343, "unit": "g"}, {"measurement": "Pain threshold: MPE (%)", "setting": "[4]; [21]", "result": 35.5, "unit": "%"}, {"measurement": "Pain threshold", "setting": "[4]; [22]", "result": 335, "unit": "g"}, {"measurement": "Pain threshold: MPE (%)", "setting": "[4]; [22]", "result": 38.2, "unit": "%"}, {"measurement": "Pain threshold", "setting": "[4]; [23]", "result": 320, "unit": "g"}, {"measurement": "Pain threshold: MPE (%)", "setting": "[4]; [23]", "result": 43, "unit": "%"}, {"measurement": "IC50", "setting": "[5]", "result": 450, "unit": "nM"}, {"measurement": "IC50", "setting": "[6]", "result": 3200, "unit": "nM"}, {"measurement": "IC50", "setting": "[7]", "result": 270, "unit": "nM"}, {"measurement": "inhibition at 0.1 µM", "setting": "[8]", "result": "> 50", "unit": "%"}, {"measurement": "IC50", "setting": "[9]", "result": 9, "unit": "nM"}, {"measurement": "inhibition at 0.1 µM", "setting": "[10]", "result": "> 50", "unit": "%"}, {"measurement": "inhibition at 0.1 µM", "setting": "[11]", "result": "> 50", "unit": "%"}, {"measurement": "% protective effect vs. CFA induced hyperalgesia", "setting": "[12]", "result": 100, "unit": "%"}, {"measurement": "average potency ratio (other SRC family kinases vs FYN)", "setting": "[13]", "result": "about 100"}, {"measurement": "IC50", "setting": "[13]; read-out: IC50, all other kinases examined of the SRC family", "result": "> 100", "unit": "nM"}, {"measurement": "IC50", "setting": "[14]", "result": 730, "unit": "nM"}, {"measurement": "effect on more than 70% of the remaining kinases examined", "setting": "[15]", "result": "practically ineffective"}]}
